In data set [1] the test system is CD81-deficient S29 cells. Put plainly: Single-cycle production assay: intra- and extracellular infectivity titers and core levels. Format: cell-based, human. As to conditions: 48 hours after transfection. On the procedure:
Determination of intra- and extra-cellular HCV core levels and infectivity titers. For single-cycle production assays, an Huh7-derived CD-81 deficient cell line S29 was transfected with HCV RNA and intracellular HCV core levels were measured 4 and 48 hours post transfection. Additionally, intra- and extra-cellular HCV infectivity titers, as well as extracellular HCV core concentration, were determined 48 hours post transfection, as described previously. Briefly, for this assay, S29 cells were seeded in 6 well plates (˜3.5×10^5 cells/well) 24 hours prior to transfection. Plasmids of the different full-length clones were digested with XbaI (New England Biolabs, NEB) for linearization and treated with Mung Bean nuclease (NEB). HCV RNA was generated by in vitro transcription using T7 RNA polymerase (Promega). […] RNA was quantified using spectrophotometry (NanoDrop) and 10 μg of RNA was used for transfection with Lipofectamine 2000 (Invitrogen). […] Both, intra- and extra-cellular core antigen levels were determined by the Architect HCV Ag detection system (Abbott) following the manufacturer's instructions. […] Specific dilutions were analyzed in triplicate for HCV infectivity titers, and the FFU was counted using an ImmunoSpot Series 5 UV Analyzer with customized software (CTL Europe GmbH), and confirmed by manual count. […]

For data set [2], the system named is Huh7.5 cells. The experiment in a line: HCV infectivity titers (FFU assay) of culture supernatant after RNA transfection or viral passage. Type of data set: cell-based, human. On the procedure: Transfection and infection of Huh7.5 cells. The human hepatoma cell line Huh7.5 was maintained as described. Cells were plated in 6-well plates (˜3.5×10^5 cells/well) ˜24 hours before RNA transfection or viral infection, reaching 80-90% confluence at the time of inoculation. RNA transfection and viral infection were performed as previously described. The transfected or infected cultures were incubated for ˜16 hours, and sub-cultured every 2-3 days; culture supernatant was collected, filtered (0.45 μm), and stored at […] until analysis.
Analysis of HCV in cultured cells. […] Percentage of HCV antigen positive cells in the culture was determined with fluorescence microscopy. Culture supernatants were collected when 80% of cells were HCV antigen positive (peak infection) and HCV infectivity titers were determined by an FFU assay using a combination of C7-50 and 9E10, as previously described. […] The number of FFU was automatically counted with an ImmunoSpot Series 5 UV Analyzer with customized software (CTL Europe GmbH). HCV RNA titers in the culture supernatant were determined using real time RT-PCR TaqMan method. Core antigen levels were determined by the Architect HCV Ag detection system (Abbott) following manufacturer's instructions. Whole ORF sequences of passaged viruses were determined using procedures previously described for the sequencing of H77C and JFH1 genomes.

Entries after “also recorded” stand apart in the source; their conditions may differ.

For “HCV1_LSGF/S399F/TNm/4m: full-length HCV-1 recombinant with LSGF/S399F/TNm plus A970T/I1312V/C2419R/A2919T”, in data set [1], the extracellular infectivity titers entry is reported as “comparable to those of HCV1cc”. Also, in data set [2] (after transfection of Huh7.5 cells, detection limit 10^2.4 FFU/ml), the “day at which HCV infectivity titers were first detectable” value was determined as 4 days. Further, the “infectivity titers compared with HCV1cc” value in data set [2] (transfected Huh7.5 cells) is listed as “slightly lower than those of HCV1cc; also recorded: close to those of HCV1cc”.

The values are drawn from patent US10280404B2, “Optimized HCV full-length infectious cell culture systems and applications thereof” (Hvidore Hospital, priority 2014, dated 2019).
